The record followed here is ChEMBL document CHEMBL4020734, “Identification of a novel fluoropyrrole derivative as a potassium-competitive acid blocker with long duration of action” (Bioorg Med Chem, 2017).

A short description of series [1]: Dissociation constant, pKa of the compound. Format: physicochemical.
Series [2] can be described thus: Effective permeability of the compound at 10 uM at pH 5 after 3 hrs by PAMPA. The series is classed as physicochemical. To be noted: read-out: Peff.
A short description of series [3]: Inhibition of H+/K+-ATPase in porcine stomach gastric mucosal microsomes assessed as reduction in inorganic phosphate production using ATP as substrate preincubated for 30 mins followed by ATP addition in presence of KCl by malachite green reagent based colorimetric assay. Also on record: species or system Sus scrofa.
Series [4] relates to Rattus norvegicus. Put plainly: Inhibition of histamine-induced acid secretion in Jcl:SD rat gastric at 1 mg/kg, iv pretreated for 3 mins followed by histamine.2HCl treatment measured after 3 hrs by titration method. Format: functional.
The nature of series [5]: Lipophilicity, log D of the compound at pH 7.4 by HPLC analysis. Conditions: buffer. Format: physicochemical.
Series [6] is described as follows: Effective permeability of the compound at 10 uM at pH 7.4 after 3 hrs by PAMPA. To be noted: read-out: Peff. The series is classed as physicochemical. Background: PAMPA measures passive passage across an artificial lipid membrane.
Series [7] has as its system Canis familiaris. Put plainly: Inhibition of histamine-induced acid secretion in dog heidenhain pouch at 1 mg/kg, po treated 1 day after and 1 to 48 hrs before histamine.2HCl treatment measured 30 mins post histamine challenge by titration method. Format: functional, organism-based. Conditions: Canis lupus familiaris.
Series [8] is described as follows: Cytotoxicity against human HepG2 cells assessed as cellular ATP level at 30 uM after 1 day by ATPLite assay relative to control. The series is classed as cell-based. To be noted: read-out: Activity. On the technique in general: Cellular ATP, detected with luciferase, serves as a proxy for viable cell number.
The next series deals with hERG (KCNH2) (Homo sapiens, UniProt Q12809). Put plainly: Inhibition of human ERG expressed in HEK cells at 10 uM at -75 mV holding potential by Whole-cell voltage clamp assay relative to control. The series is classed as cell-based. To be noted: HEK cells expressing human ERG.
Chain of hERG (KCNH2) (Q12809 whole entry): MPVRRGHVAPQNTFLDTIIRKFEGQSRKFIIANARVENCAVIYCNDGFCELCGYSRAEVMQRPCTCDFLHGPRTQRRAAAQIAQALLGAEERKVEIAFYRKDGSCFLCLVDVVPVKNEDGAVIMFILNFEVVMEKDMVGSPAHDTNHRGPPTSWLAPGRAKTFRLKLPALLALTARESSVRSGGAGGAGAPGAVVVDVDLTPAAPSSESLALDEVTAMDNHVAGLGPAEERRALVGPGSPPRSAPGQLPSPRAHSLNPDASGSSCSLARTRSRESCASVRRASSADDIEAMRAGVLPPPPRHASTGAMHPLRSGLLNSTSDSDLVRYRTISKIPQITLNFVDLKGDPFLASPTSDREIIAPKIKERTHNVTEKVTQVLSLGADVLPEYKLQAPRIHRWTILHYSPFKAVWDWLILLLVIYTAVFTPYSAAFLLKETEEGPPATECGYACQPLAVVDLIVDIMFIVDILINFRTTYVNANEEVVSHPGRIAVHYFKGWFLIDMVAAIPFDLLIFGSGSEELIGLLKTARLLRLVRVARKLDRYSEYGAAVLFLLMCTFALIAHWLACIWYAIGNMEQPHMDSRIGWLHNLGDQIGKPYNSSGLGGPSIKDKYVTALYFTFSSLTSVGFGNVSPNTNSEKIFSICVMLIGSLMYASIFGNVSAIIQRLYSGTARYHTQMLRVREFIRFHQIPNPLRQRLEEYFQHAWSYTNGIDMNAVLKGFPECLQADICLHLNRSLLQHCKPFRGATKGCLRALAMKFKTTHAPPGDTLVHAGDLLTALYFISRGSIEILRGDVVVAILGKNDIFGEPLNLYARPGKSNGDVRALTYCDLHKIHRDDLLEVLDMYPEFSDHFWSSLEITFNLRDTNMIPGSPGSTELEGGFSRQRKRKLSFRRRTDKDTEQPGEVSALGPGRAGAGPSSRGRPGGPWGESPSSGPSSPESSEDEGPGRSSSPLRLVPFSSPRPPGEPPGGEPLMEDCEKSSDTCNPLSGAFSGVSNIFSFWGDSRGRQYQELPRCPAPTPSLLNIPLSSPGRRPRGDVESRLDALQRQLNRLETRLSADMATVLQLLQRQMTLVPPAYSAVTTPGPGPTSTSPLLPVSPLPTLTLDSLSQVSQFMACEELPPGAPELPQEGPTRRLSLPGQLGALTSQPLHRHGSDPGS
Series [9] has as its system Rattus norvegicus. Put plainly: Inhibition of histamine-induced acid secretion in Jcl:SD rat gastric assessed as increase in pH of gastric perfusate at 3 mg/kg, iv pretreated for 3 mins followed by histamine.2HCl treatment measured up to 5 hrs by glass electrode method. Format: functional, organism-based.
Series [10] can be described thus: Inhibition of CYP450 (unknown origin). The series is classed as ADME. To be noted: human.
The subject of series [11] is Rattus norvegicus. The series is described as follows: Inhibition of histamine-induced acid secretion in Jcl:SD rat gastric assessed as pH of gastric perfusate at 3 mg/kg, iv pretreated for 3 mins followed by histamine.2HCl treatment measured in early time point by glass electrode method (reference value: 2). The series is classed as functional.
In series [12] the test system is Canis familiaris. The series is described as follows: Inhibition of histamine-induced acid secretion in dog heidenhain pouch at 3 mg/kg, po treated 1 day after and 1 to 48 hrs before histamine.2HCl treatment measured 30 mins post histamine challenge by titration method. Format: functional, organism-based. Conditions: Canis lupus familiaris.
For series [13], the system named is Rattus norvegicus. The series is described as follows: Inhibition of histamine-induced acid secretion in Jcl:SD rat gastric assessed as increase in pH of gastric perfusate at 1 mg/kg, iv pretreated for 3 mins followed by histamine.2HCl treatment measured after 2 hrs by glass electrode method. Format: functional, organism-based.
Series [14] can be described thus: Cytotoxicity against human HepG2 cells assessed as cellular ATP level at 100 uM after 1 day by ATPLite assay relative to control. The series is classed as cell-based. To be noted: read-out: Activity.
In series [15] the test system is Rattus norvegicus. The series is described as follows: Inhibition of histamine-induced acid secretion in Jcl:SD rat gastric assessed as pH of gastric perfusate at 1 mg/kg, iv pretreated for 3 mins followed by histamine.2HCl treatment measured up to 2 hrs by glass electrode method (reference value: 2). The series is classed as functional.
In series [16] the test system is Canis familiaris. The series is described as follows: Inhibition of histamine-induced acid secretion in dog heidenhain pouch at 0.8 mg/kg, po treated 1 day after and 1 to 48 hrs before histamine.2HCl treatment measured 30 mins post histamine challenge by titration method. Format: functional. To be noted: Canis lupus familiaris.
A short description of series [17]: Stability of the compound under acidic condition. Format: physicochemical.
Series [18] deals with Rattus norvegicus. Put plainly: Inhibition of histamine-induced acid secretion in Jcl:SD rat gastric assessed as pH of gastric perfusate at 0.7 mg/kg, iv pretreated for 3 mins followed by histamine.2HCl treatment measured after 5 hrs by glass electrode method (reference value: 2). Format: functional.
Series [19] concerns Rattus norvegicus. The series is described as follows: Inhibition of histamine-induced acid secretion in po dosed rat gastric pretreated for 1 hr followed by histamine.2HCl treatment measured after 3 hrs by titration method. Format: functional, organism-based.
Series [20] is described as follows: Solubility of the compound. Format: physicochemical.
The nature of series [21]: Metabolic stability of the compound.
The test system of series [22] is Rattus norvegicus. Put plainly: Inhibition of histamine-induced acid secretion in Jcl:SD rat gastric assessed as pH of gastric perfusate at 1 mg/kg, iv pretreated for 3 mins followed by histamine.2HCl treatment measured after 150 to 180 mins by glass electrode method (reference value: 2). The series is classed as functional.

The source made the active and inactive calls. The rule behind the calls is not given here. Some results are limits rather than exact numbers.

`CNCc1cc(-c2ccccc2)n(S(=O)(=O)c2ccc(OC)cc2)c1`: the pKa – broadly, the negative logarithm of the acid dissociation constant – in series [1] worked out at 9.48. For the same compound, the Papp at 3 h, 10 µM in [2] stood at 19.8 ×10⁻⁶ cm/s; in series [6] it was 24.6 ×10⁻⁶ cm/s. In [3], the half-maximal inhibitory concentration (IC50) (as a rule, the point on the concentration scale where inhibition reaches its midpoint) was determined as 30 nM. In the series on Rattus norvegicus [4], the inhibition in vivo (as a rule, the change of the read-out against control, counted positive when it falls) at 1 mg/kg amounted to 95%. Also, the logD (commonly lipophilicity at a set pH, counting ionised and neutral species) in series [5] came to 1.54. Further, the inhibition (usually the relative decrease from the control value, in per cent) in the series on Canis familiaris [7] is “Active”. Further, the viability at 24 h, 30 µM in series [8] was 22.1%. The compound also came in with an inhibition at 10 µM against hERG (KCNH2) of 89.1%.

Consider `Cc1c(OCC(F)(F)F)ccnc1C[S+]([O-])c1nc2ccccc2[nH]1` (configuration not stated) [LANSOPRAZOLE], for which the inhibition entry in the series on Rattus norvegicus [9] is “inactive”. In addition, in series [10], the “inhibition (INH)” value is recorded as “Active”. In addition, the pH in the series on Rattus norvegicus [11] was under 5. Further, the inhibition entry in the series on Canis familiaris [12] is “Active”.

Regarding `CNCc1cc(-c2cccnc2C#N)n(S(=O)(=O)c2ccccc2)c1`, the inhibition result in the series on Rattus norvegicus [13] was “inactive”. The concentration for half-maximal inhibition (IC50) in series [3] turned out to be 120 nM. Further, the inhibition in vivo at 1 mg/kg in the series on Rattus norvegicus [4] amounted to 99%. Moreover, the viability at 24 h, 100 µM in series [14] was found to be 82.1%. The same compound showed a pH-dependent lipophilicity (logD) in series [5] of -0.32. The pH in the series on Rattus norvegicus [15] is over 5. In addition, testing at 10 µM against hERG (KCNH2) gave an inhibition of 32.9%.

Turning to `CNCc1cc(-c2ccccc2)n(S(=O)(=O)c2ccc(C)cc2)c1`, the pKa in series [1] amounted to 9.49. Further, the half-inhibitory concentration (IC50) in series [3] lay in the range of 46 to 55 nM. The inhibition in vivo at 1 mg/kg in the series with Rattus norvegicus [4] is 66%. In addition, the pH-dependent lipophilicity (logD) in series [5] was 1.83. Further, the viability at 24 h, 30 µM in series [8] worked out at 38.6%.

The compound `CNCc1cn(S(=O)(=O)c2cccnc2)c(-c2cccnc2F)c1F` showed a pKa in [1] of 8.54. For the same compound, the Papp at 3 h, 10 µM worked out at 4.7 ×10⁻⁶ cm/s in series [2] and 25.6 ×10⁻⁶ cm/s in series [6]. The compound also had an inhibition in vivo at 0.8 mg/kg with Canis familiaris [16] of 100%. Besides, the Stability entry in series [17] is listed as “Stable”. The IC50 in series [3] was determined as 49 nM. Further, the pH with Rattus norvegicus [18] came to 6. Further, the inhibition in vivo at 1 mg/kg in the series on Rattus norvegicus [4] was found to be 98%. Moreover, in series [14], the viability at 24 h, 100 µM turned out to be 100%. For the same compound, the logD in series [5] came to 0.04. Further, in series [10], the “inhibition (INH)” value is on record as “Not Active”. Further, in the series on Rattus norvegicus [19], the inhibition entry was “Dose-dependent effect”. Besides, 10 µM produced 39.8% inhibition against hERG (KCNH2).

Consider `CNCc1cc(-c2cccnc2)n(S(=O)(=O)c2ccccc2)c1`, for which, in series [20], the solubility entry is “Soluble”. The Stability entry in series [21] is listed as “Stable”. In series [3], the half-inhibitory concentration (IC50) was found to be 130 nM. The inhibition in vivo at 1 mg/kg with Rattus norvegicus [4] worked out at 4%. The viability at 24 h, 100 µM in series [14] worked out at 95%. Besides, the log distribution coefficient (logD) in series [5] is 0.08. In series [10], the “inhibition (INH)” value is given as “Not Active”. In addition, at 10 µM the inhibition against hERG (KCNH2) was 43.3%.

Consider `CNCc1cc(-c2cccnc2F)n(S(=O)(=O)c2cccnc2)c1`, for which the IC50 in series [3] came out at 210 nM. In the series on Rattus norvegicus [22], the pH amounted to 5. Besides, the inhibition in vivo at 1 mg/kg with Rattus norvegicus [4] turned out to be 96%. The viability at 24 h, 100 µM in series [14] was found to be 85.7%. In series [5], this compound returned a log distribution coefficient (logD) of -0.85. For the same compound, 10 µM produced 4.4% inhibition against hERG (KCNH2).

With `CNCc1cc(-c2ccc(F)cc2)n(S(=O)(=O)c2ccc(C)cc2)c1`, in series [1], the pKa stood at 9.4. For the same compound, the IC50 in series [3] came to 90 nM. In the series with Rattus norvegicus [4], the inhibition in vivo at 1 mg/kg amounted to 86%. In series [5], this compound had a logD of 2.05. Moreover, the viability at 24 h, 30 µM in [8] was determined as 0.4%.
